Test results from patent publication US20230093861A1, “RAPAMYCIN ANALOGS AS MTOR INHIBITORS” (Revolution Medicines, Inc., priority 2017, published 2023).

How the values were obtained:
[1] = system: P-P70S6K (T389); experiment: Cell based AlphaLISA assay, inhibition of P-P70S6K (T389) (mTORC1 substrate phosphorylation) in MDA-MB-468 cells; details: Homo sapiens, 4 h, AlphaLISA, two to four hours at 37° C., read-out: pIC50 for Inhibition of mTORC1 and mTORC2 Substrate Phosphorylation, P-P70S6K-(T389) (converted)
In short: (§1)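 AlphaLISA SureFire Ultra detection of phosphorylated substrate in lysed cells; duplicate Alpha reads; control-normalized IC50 fitting.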

[2] = system: P-4E-BP1 (T37/46); experiment: Cell based AlphaLISA assay, inhibition of P-4E-BP1 (T37/46) (mTORC1 substrate phosphorylation) in MDA-MB-468 cells; details: Homo sapiens, MDA-MB-468, 4 h, AlphaLISA, two to four hours at 37° C., read-out: pIC50 for Inhibition of mTORC1 and mTORC2 Substrate Phosphorylation, P-4E-BP1-(T37/46) (converted)
In short: as §1

[3] = system: P-Akt (S473); experiment: Cell based AlphaLISA assay, inhibition of P-Akt (S473) (mTORC2 substrate phosphorylation) in MDA-MB-468 cells; details: Homo sapiens, MDA-MB-468, 4 h, AlphaLISA, two to four hours at 37° C., read-out: pIC50 for Inhibition of mTORC1 and mTORC2 Substrate Phosphorylation, p-AKT 1/2/3 -(S473) (converted)
In short: as §1

SMILES	IC50 [1] [nM]	IC50 [2] [nM]	IC50 [3] [nM]
CO[C@H]1C[C@@H]2CC[C@@H](C)[C@@](O)(O2)C(=O)C(=O)N2CCCC[C@H]2C(=O)O[C@H]([C@H](C)C[C@@H]2CC[C@H](n3cc(-c4cccc(C(=O)NCCOCCOCCOCCC(=O)NCCOCCOCCC(=O)NCCCCn5nc(-c6ccc7oc(N)nc7c6)c6c(N)ncnc65)c4)nn3)[C@H](OC)C2)CC(=O)[C@H](C)/C=C(\C)[C@@H](O)[C@@H](OC)C(=O)[C@H](C)C[C@H](C)/C=C/C=C/C=C/1C [Example 136]	1 to 10	3.16 to 31.6	31.6 to 1000
CO[C@H]1C[C@@H]2CC[C@@H](C)[C@@](O)(O2)C(=O)C(=O)N2CCCC[C@H]2C(=O)O[C@H]([C@H](C)C[C@@H]2CC[C@H](n3cc(-c4cccc(C(=O)NCCOCCOCCOCCC(=O)NCCOCCOCCOCCC(=O)NCCCCn5nc(-c6ccc7oc(N)nc7c6)c6c(N)ncnc65)c4)nn3)[C@H](OC)C2)CC(=O)[C@H](C)/C=C(\C)[C@@H](O)[C@@H](OC)C(=O)[C@H](C)C[C@H](C)/C=C/C=C/C=C/1C [Example 137]	1 to 10	3.16 to 31.6	31.6 to 1000
CO[C@H]1C[C@@H]2CC[C@@H](C)[C@@](O)(O2)C(=O)C(=O)N2CCCC[C@H]2C(=O)O[C@H]([C@H](C)C[C@@H]2CC[C@H](n3cc(-c4cccc(C(=O)NCCOCCOCCOCCC(=O)NCCOCCOCCOCCC(=O)NCCCCn5nc(-c6cc7cc(O)ccc7[nH]6)c6c(N)ncnc65)c4)nn3)[C@H](OC)C2)CC(=O)[C@H](C)/C=C(\C)[C@@H](O)[C@@H](OC)C(=O)[C@H](C)C[C@H](C)/C=C/C=C/C=C/1C [Example 138]	1 to 10	> 1000	31.6 to 1000
CO[C@H]1C[C@@H]2CC[C@@H](C)[C@@](O)(O2)C(=O)C(=O)N2CCCC[C@H]2C(=O)O[C@H]([C@H](C)C[C@@H]2CC[C@H](n3cc(-c4cccc(C(=O)NCCOCCOCCOCCC(=O)NCCOCCOCCOCCOCCC(=O)NCCCCn5nc(-c6ccc7oc(N)nc7c6)c6c(N)ncnc65)c4)nn3)[C@H](OC)C2)CC(=O)[C@H](C)/C=C(\C)[C@@H](O)[C@@H](OC)C(=O)[C@H](C)C[C@H](C)/C=C/C=C/C=C/1C [Example 139]	1 to 10	3.16 to 31.6	3.16 to 31.6
CO[C@H]1C[C@@H]2CC[C@@H](C)[C@@](O)(O2)C(=O)C(=O)N2CCCC[C@H]2C(=O)O[C@H]([C@H](C)C[C@@H]2CC[C@H](n3cc(-c4cccc(C(=O)NCCOCCOCCOCCC(=O)NCCOCCOCCOCCOCCC(=O)NCCCCn5nc(-c6cc7cc(O)ccc7[nH]6)c6c(N)ncnc65)c4)nn3)[C@H](OC)C2)CC(=O)[C@H](C)/C=C(\C)[C@@H](O)[C@@H](OC)C(=O)[C@H](C)C[C@H](C)/C=C/C=C/C=C/1C [Example 140]	1 to 10	3.16 to 31.6	31.6 to 1000
CO[C@H]1C[C@@H]2CC[C@@H](C)[C@@](O)(O2)C(=O)C(=O)N2CCCC[C@H]2C(=O)O[C@H]([C@H](C)C[C@@H]2CC[C@H](n3cc(-c4cccc(C(=O)NCCOCCOCCOCCOCCC(=O)NCCOCCOCCOCCOCCC(=O)NCCCCn5nc(-c6ccc7oc(N)nc7c6)c6c(N)ncnc65)c4)nn3)[C@H](OC)C2)CC(=O)[C@H](C)/C=C(\C)[C@@H](O)[C@@H](OC)C(=O)[C@H](C)C[C@H](C)/C=C/C=C/C=C/1C [Example 141]	1 to 10	3.16 to 31.6	3.16 to 31.6
CO[C@H]1C[C@@H]2CC[C@@H](C)[C@@](O)(O2)C(=O)C(=O)N2CCCC[C@H]2C(=O)O[C@H]([C@H](C)C[C@@H]2CC[C@H](n3cc(-c4cccc(C(=O)NCCOCCOCCOCCOCCC(=O)NCCOCCOCCOCCOCCC(=O)NCCCCn5nc(-c6cc7cc(O)ccc7[nH]6)c6c(N)ncnc65)c4)nn3)[C@H](OC)C2)CC(=O)[C@H](C)/C=C(\C)[C@@H](O)[C@@H](OC)C(=O)[C@H](C)C[C@H](C)/C=C/C=C/C=C/1C [Example 142]	1 to 10	3.16 to 31.6	31.6 to 1000
CO[C@H]1C[C@@H]2CC[C@@H](C)[C@@](O)(O2)C(=O)C(=O)N2CCCC[C@H]2C(=O)O[C@H]([C@H](C)C[C@@H]2CC[C@H](n3cc(COC(=O)NCCOCCOCCOCCC(=O)NCCOCCOCCC(=O)NCCCCn4nc(-c5ccc6oc(N)nc6c5)c5c(N)ncnc54)nn3)[C@H](OC)C2)C[C@@H](OC)[C@H](C)/C=C(\C)[C@@H](O)[C@@H](OC)C(=O)[C@H](C)C[C@H](C)/C=C/C=C/C=C/1C [Example 143]	1 to 10	31.6 to 1000	> 1000
CO[C@H]1C[C@@H]2CC[C@@H](C)[C@@](O)(O2)C(=O)C(=O)N2CCCC[C@H]2C(=O)O[C@H]([C@H](C)C[C@@H]2CC[C@H](n3cc(COC(=O)NCCOCCOCCOCCC(=O)NCCOCCOCCC(=O)NCCCCn4nc(-c5cc6cc(O)ccc6[nH]5)c5c(N)ncnc54)nn3)[C@H](OC)C2)C[C@@H](OC)[C@H](C)/C=C(\C)[C@@H](O)[C@@H](OC)C(=O)[C@H](C)C[C@H](C)/C=C/C=C/C=C/1C [Example 144]	10 to 1000	> 1000	> 1000
CO[C@H]1C[C@@H]2CC[C@@H](C)[C@@](O)(O2)C(=O)C(=O)N2CCCC[C@H]2C(=O)O[C@H]([C@H](C)C[C@@H]2CC[C@H](n3cc(COC(=O)NCCOCCOCCOCCC(=O)NCCOCCOCCOCCC(=O)NCCCCn4nc(-c5ccc6oc(N)nc6c5)c5c(N)ncnc54)nn3)[C@H](OC)C2)C[C@@H](OC)[C@H](C)/C=C(\C)[C@@H](O)[C@@H](OC)C(=O)[C@H](C)C[C@H](C)/C=C/C=C/C=C/1C [Example 145]	1 to 10	31.6 to 1000	> 1000
CO[C@H]1C[C@@H]2CC[C@@H](C)[C@@](O)(O2)C(=O)C(=O)N2CCCC[C@H]2C(=O)O[C@H]([C@H](C)C[C@@H]2CC[C@H](n3cc(COC(=O)NCCOCCOCCOCCC(=O)NCCOCCOCCOCCC(=O)NCCCCn4nc(-c5cc6cc(O)ccc6[nH]5)c5c(N)ncnc54)nn3)[C@H](OC)C2)C[C@@H](OC)[C@H](C)/C=C(\C)[C@@H](O)[C@@H](OC)C(=O)[C@H](C)C[C@H](C)/C=C/C=C/C=C/1C [Example 146]	1 to 10	> 1000	> 1000
CCO[C@@H]1C[C@@H]([C@H](C)C[C@@H]2CC[C@H](n3cc(COC(=O)NCCOCCOCCOCCC(=O)NCCOCCOCCC(=O)NCCCCn4nc(-c5ccc6oc(N)nc6c5)c5c(N)ncnc54)nn3)[C@H](OC)C2)OC(=O)[C@@H]2CCCCN2C(=O)C(=O)[C@]2(O)O[C@@H](CC[C@H]2C)C[C@H](OC)/C(C)=C/C=C/C=C/[C@@H](C)C[C@@H](C)C(=O)[C@H](OC)[C@H](O)/C(C)=C/[C@H]1C [Example 147]	10 to 1000	31.6 to 1000	> 1000
CCO[C@@H]1C[C@@H]([C@H](C)C[C@@H]2CC[C@H](n3cc(COC(=O)NCCOCCOCCOCCC(=O)NCCOCCOCCC(=O)NCCCCn4nc(-c5cc6cc(O)ccc6[nH]5)c5c(N)ncnc54)nn3)[C@H](OC)C2)OC(=O)[C@@H]2CCCCN2C(=O)C(=O)[C@]2(O)O[C@@H](CC[C@H]2C)C[C@H](OC)/C(C)=C/C=C/C=C/[C@@H](C)C[C@@H](C)C(=O)[C@H](OC)[C@H](O)/C(C)=C/[C@H]1C [Example 148]	10 to 1000	> 1000	> 1000
